These results are taken from patent publication US8686150B2 (Sanofi, priority 2011, dated 2014).

Structures are written as SMILES.

The test concerns the target T1, human full-length recombinant PKC βII (Homo sapiens, UniProt P05771).
T1 construct: Active human full-length recombinant PKC βII; purchased Invitrogen GmbH, Darmstadt, Germany
As to the kind of experiment: Determination of PKC βII inhibition (Caliper mobility-shift kinase assay, Fluorescein-RFARKGSLRQKNV peptide substrate). The test is classed as biochemical. The settings on record: example compounds at a final concentration of 1.14 μM (±0.15 μM). The essentials:
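Full-length PKC βII (30 ng/ml in pre-dilution) with PS/DAG/Ca2+ activators, pH 7.4; fluorescein peptide and ATP at 3 μM and 120 μM before mixing. Reaction ran 60 min at 32 °C, was EDTA-stopped, and was read by mobility shift. % inhibition came from product/(substrate+product) peak heights, tested at 1.14 μM final.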

T1 sequence (P05771 1-673 isoform P05771-2): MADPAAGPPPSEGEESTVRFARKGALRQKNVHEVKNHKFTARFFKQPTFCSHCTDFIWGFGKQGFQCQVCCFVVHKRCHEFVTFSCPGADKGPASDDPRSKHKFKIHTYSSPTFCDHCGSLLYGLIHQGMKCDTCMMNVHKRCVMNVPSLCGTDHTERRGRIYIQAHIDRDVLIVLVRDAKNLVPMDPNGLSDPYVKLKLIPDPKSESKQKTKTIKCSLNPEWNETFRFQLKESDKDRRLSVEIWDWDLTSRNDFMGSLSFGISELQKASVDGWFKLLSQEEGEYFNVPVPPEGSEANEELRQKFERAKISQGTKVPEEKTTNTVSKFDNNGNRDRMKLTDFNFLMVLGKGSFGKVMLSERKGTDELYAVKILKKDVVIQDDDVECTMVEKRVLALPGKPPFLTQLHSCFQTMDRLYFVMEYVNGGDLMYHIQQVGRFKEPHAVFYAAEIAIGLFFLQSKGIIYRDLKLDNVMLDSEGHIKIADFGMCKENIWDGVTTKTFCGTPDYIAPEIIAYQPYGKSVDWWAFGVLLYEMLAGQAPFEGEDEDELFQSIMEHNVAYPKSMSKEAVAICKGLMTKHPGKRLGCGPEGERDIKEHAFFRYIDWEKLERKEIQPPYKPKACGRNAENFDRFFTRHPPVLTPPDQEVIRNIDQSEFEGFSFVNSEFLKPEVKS

As usually defined, the inhibition is how much of the control response was suppressed. Regarding `Cc1cc(O)ccc1-c1cc(C(=O)N2CCNCC2c2cccc(F)c2F)c2c(C)n[nH]c2n1` (stereo not drawn) [Example 139, [2-(2,3-Difluoro-phenyl)-piperazin-1-yl]-[6-(4-hydroxy-2-methyl-phenyl)-3-methyl-1H-pyrazolo[3,4-b]pyridin-4-yl]-methanone], the inhibition at 1.14 µM amounted to 99%. Regarding `COc1ccc(C2CNCCN2C(=O)c2cc(-c3ccc(O)cc3C)nc3[nH]nc(C)c23)cc1` (stereo not drawn) [Example 140, [6-(4-Hydroxy-2-methyl-phenyl)-3-methyl-1H-pyrazolo[3,4-b]pyridin-4-yl]-[2-(4-methoxy-phenyl)-piperazin-1-yl]-methanone], the inhibition at 1.14 µM came out at 98%. Turning to `Cc1cc(O)ccc1-c1cc(C(=O)N2CCNC[C@@H]2c2cccc(F)c2)c2c(C)n[nH]c2n1` [Example 141, [(S)-2-(3-Fluoro-phenyl)-piperazin-1-yl]-[6-(4-hydroxy-2-methyl-phenyl)-3-methyl-1H-pyrazolo[3,4-b]pyridin-4-yl]-methanone], the inhibition at 1.14 µM was determined as 98%. With `Cc1cc(O)ccc1-c1cc(C(=O)N2CCNCC2(C)C)c2c(C)n[nH]c2n1` [Example 142, (2,2-Dimethyl-piperazin-1-yl)-[6-(4-hydroxy-2-methyl-phenyl)-3-methyl-1H-pyrazolo[3,4-b]pyridin-4-yl]-methanone], the inhibition at 1.14 µM amounted to 98%.

With `CO[C@H]1CNC[C@@H]1NC(=O)c1cc(-c2ccc(O)cc2C)nc2[nH]nc(C)c12` [Example 143, 6-(4-Hydroxy-2-methyl-phenyl)-3-methyl-1H-pyrazolo[3,4-b]pyridine-4-carboxylic acid ((3S,4S)-4-methoxy-pyrrolidin-3-yl)-amide], the inhibition at 1.14 µM was determined as 84%. `Cc1cc(O)ccc1-c1cc(C(=O)N2CCNCC2C(F)(F)F)c2c(C)n[nH]c2n1` (stereo not drawn) [Example 144, [6-(4-Hydroxy-2-methyl-phenyl)-3-methyl-1H-pyrazolo[3,4-b]pyridin-4-yl]-(2-trifluoromethyl-piperazin-1-yl)-methanone]: the inhibition at 1.14 µM stood at 82%. On to `Cc1cc(O)ccc1-c1cc(C(=O)N2CCN[C@@H](C)C2)c2c(C)n[nH]c2n1` [Example 145, [6-(4-Hydroxy-2-methyl-phenyl)-3-methyl-1H-pyrazolo[3,4-b]pyridin-4-yl]-((S)-3-methyl-piperazin-1-yl)-methanone], for which the inhibition at 1.14 µM turned out to be 92%. Take `COc1cccc(C2CNCCN2C(=O)c2cc(-c3ccc(O)cc3C)nc3[nH]nc(C)c23)c1` (stereo not drawn) [Example 146, [6-(4-Hydroxy-2-methyl-phenyl)-3-methyl-1H-pyrazolo[3,4-b]pyridin-4-yl]-[2-(3-methoxy-phenyl)-piperazin-1-yl]-methanone]: the inhibition at 1.14 µM stood at 97%.

For `Cc1cc(O)ccc1-c1cc(C(=O)N2CCNCC2c2cccc(F)c2)c2c(C)n[nH]c2n1` (stereo not drawn) [Example 147, [2-(3-Fluoro-phenyl)-piperazin-1-yl]-[6-(4-hydroxy-2-methyl-phenyl)-3-methyl-1H-pyrazolo[3,4-b]pyridin-4-yl]-methanone], the inhibition at 1.14 µM is 96%.

Turning to `Cc1cc(O)ccc1-c1cc(C(=O)NCC2(N)CCCCCC2)c2c(C)n[nH]c2n1` [Example 148, 6-(4-Hydroxy-2-methyl-phenyl)-3-methyl-1H-pyrazolo[3,4-b]pyridine-4-carboxylic acid (1-amino-cycloheptylmethyl)-amide], the inhibition at 1.14 µM worked out at 85%. Take `CCC1(NC(=O)c2cc(-c3ccc(O)cc3C)nc3[nH]nc(C)c23)CCCNC1` (stereo not drawn) [Example 149, 6-(4-Hydroxy-2-methyl-phenyl)-3-methyl-1H-pyrazolo[3,4-b]pyridine-4-carboxylic acid (3-ethyl-piperidin-3-yl)-amide]: the inhibition at 1.14 µM was 86%. On to `Cc1cc(O)ccc1-c1cc(C(=O)N2CCNC[C@H]2c2ccccc2)c2c(C)n[nH]c2n1` [Example 150, [6-(4-Hydroxy-2-methyl-phenyl)-3-methyl-1H-pyrazolo[3,4-b]pyridin-4-yl]-((R)-2-phenyl-piperazin-1-yl)-methanone], for which the inhibition at 1.14 µM worked out at 100%. The same measure, in the same setting: the figure for `Cc1cc(O)ccc1-c1cc(C(=O)N2CCNCC2c2ccccc2F)c2c(C)n[nH]c2n1` (stereo not drawn) [Example 151, [2-(2-Fluoro-phenyl)-piperazin-1-yl]-[6-(4-hydroxy-2-methyl-phenyl)-3-methyl-1H-pyrazolo[3,4-b]pyridin-4-yl]-methanone] is 96%. The same measure, in the same setting: the figure for `Cc1cc(O)ccc1-c1cc(C(=O)N2CCNCC2c2ccc(F)cc2F)c2c(C)n[nH]c2n1` (stereo not drawn) [Example 152, [2-(2,4-Difluoro-phenyl)-piperazin-1-yl]-[6-(4-hydroxy-2-methyl-phenyl)-3-methyl-1H-pyrazolo[3,4-b]pyridin-4-yl]-methanone] is 94%; for `Cc1cc(O)ccc1-c1cc(C(=O)N2CCNCC2c2ccccc2Cl)c2c(C)n[nH]c2n1` (stereo not drawn) [Example 153, [2-(2-Chloro-phenyl)-piperazin-1-yl]-[6-(4-hydroxy-2-methyl-phenyl)-3-methyl-1H-pyrazolo[3,4-b]pyridin-4-yl]-methanone] it is 89%.

`Cc1cc(O)ccc1-c1cc(C(=O)N2CCNCC2c2ccc(C(F)(F)F)cc2)c2c(C)n[nH]c2n1` (stereo not drawn) [Example 154, [6-(4-Hydroxy-2-methyl-phenyl)-3-methyl-1H-pyrazolo[3,4-b]pyridin-4-yl]-[2-(4-trifluoromethyl-phenyl)-piperazin-1-yl]-methanone]: the inhibition at 1.14 µM is 94%. Regarding `Cc1cc(O)ccc1-c1cc(C(=O)N2CC(C)(C)NCC2(C)C)c2c(C)n[nH]c2n1` [Example 155, [6-(4-Hydroxy-2-methyl-phenyl)-3-methyl-1H-pyrazolo[3,4-b]pyridin-4-yl]-(2,2,5,5-tetramethyl-piperazin-1-yl)-methanone], the inhibition at 1.14 µM was determined as 88%.

For `Cc1cc(O)cc(C)c1-c1cc(C(=O)N2CCNCC2(C)C)c2c(C)n[nH]c2n1` [Example 156, (2,2-Dimethyl-piperazin-1-yl)-[6-(4-hydroxy-2,6-dimethyl-phenyl)-3-methyl-1H-pyrazolo[3,4-b]pyridin-4-yl]-methanone], the inhibition at 1.14 µM worked out at 26%. With `CC1(C)CNCCN1C(=O)c1cc(-c2ccc(O)cc2)nc2[nH]nc(C3CC3)c12` [Example 157, [3-Cyclopropyl-6-(4-hydroxy-phenyl)-1H-pyrazolo[3,4-b]pyridin-4-yl]-(2,2-dimethyl-piperazin-1-yl)-methanone], the inhibition at 1.14 µM is 91%. For `O=C(c1cc(-c2ccc(O)cc2)nc2[nH]nc(C3CC3)c12)N1CCNC[C@H]1c1ccccc1` [Example 158, [3-Cyclopropyl-6-(4-hydroxy-phenyl)-1H-pyrazolo[3,4-b]pyridin-4-yl]-((R)-2-phenyl-piperazin-1-yl)-methanone], the inhibition at 1.14 µM stood at 78%. For `CCc1n[nH]c2nc(-c3ccc(O)cc3)cc(C(=O)NC3CN4CCC3CC4)c12` (stereo not drawn) [Example 159, 3-Ethyl-6-(4-hydroxy-phenyl)-1H-pyrazolo[3,4-b]pyridine-4-carboxylic acid (1-aza-bicyclo[2.2.2]oct-3-yl)-amide], the inhibition at 1.14 µM is 55%. Turning to `CCc1n[nH]c2nc(-c3ccc(O)cc3)cc(C(=O)N3CC(N)C3)c12` [Example 160, (3-Amino-azetidin-1-yl)-[3-ethyl-6-(4-hydroxy-phenyl)-1H-pyrazolo[3,4-b]pyridin-4-yl]-methanone], the inhibition at 1.14 µM stood at 49%. The same measure, in the same setting: in the case of `CCc1n[nH]c2nc(-c3ccc(O)cc3)cc(C(=O)N[C@H]3CNC[C@@H]3OC)c12` [Example 161, 3-Ethyl-6-(4-hydroxy-phenyl)-1H-pyrazolo[3,4-b]pyridine-4-carboxylic acid ((3S,4S)-4-methoxy-pyrrolidin-3-yl)-amide] it was 77%. `CCc1n[nH]c2nc(-c3ccc(O)cc3)cc(C(=O)N[C@@H]3CN4CCC3CC4)c12` [Example 162, (S)-3-Ethyl-6-(4-hydroxy-phenyl)-1H-pyrazolo[3,4-b]pyridine-4-carboxylic acid (1-aza-bicyclo[2.2.2]oct-3-yl)-amide]: the inhibition at 1.14 µM is 51%.

On to `CCc1n[nH]c2nc(-c3ccc(O)cc3)cc(C(=O)NC3CC4CCC(C3)N4C)c12` (stereo not drawn) [Example 163, 3-Ethyl-6-(4-hydroxy-phenyl)-1H-pyrazolo[3,4-b]pyridine-4-carboxylic acid (8-methyl-8-aza-bicyclo[3.2.1]oct-3-yl)-amide], for which the inhibition at 1.14 µM turned out to be 57%. Usually % Inhibition stands for the drop in the measured response relative to a control, in per cent. Regarding `CCc1n[nH]c2nc(-c3ccc(O)cc3)cc(C(=O)NC3CC4CCC(C3)N4C)c12` [Example 164, 3-Ethyl-6-(4-hydroxy-phenyl)-1H-pyrazolo[3,4-b]pyridine-4-carboxylic acid ((3R)-8-methyl-8-aza-bicyclo[3.2.1]oct-3-yl)-amide], the “% Inhibition” value is on record as 53%.

With `CCc1n[nH]c2nc(-c3ccc(O)cc3)cc(C(=O)N3CCNC(C)C3)c12` (stereo not drawn) [Example 165, [3-Ethyl-6-(4-hydroxy-phenyl)-1H-pyrazolo[3,4-b]pyridin-4-yl]-(3-methyl-piperazin-1-yl)-methanone], the inhibition at 1.14 µM was 92%.

`CCc1n[nH]c2nc(-c3ccc(O)cc3)cc(C(=O)N3CCC(N)CC3)c12` [Example 166, (4-Amino-piperidin-1-yl)-[3-ethyl-6-(4-hydroxy-phenyl)-1H-pyrazolo[3,4-b]pyridin-4-yl]-methanone]: the inhibition at 1.14 µM came to 87%. With `CCc1n[nH]c2nc(-c3ccc(O)cc3)cc(C(=O)N3CCC4CNCC43)c12` (stereo not drawn) [Example 167, [3-Ethyl-6-(4-hydroxy-phenyl)-1H-pyrazolo[3,4-b]pyridin-4-yl]-(hexahydro-pyrrolo[3,4-b]pyrrol-1-yl)-methanone], the inhibition at 1.14 µM worked out at 58%. Turning to `CCc1n[nH]c2nc(-c3ccc(O)cc3)cc(C(=O)NC3CCNC4(CCC4)C3)c12` (stereo not drawn) [Example 168, 3-Ethyl-6-(4-hydroxy-phenyl)-1H-pyrazolo[3,4-b]pyridine-4-carboxylic acid (5-aza-spiro[3.5]non-8-yl)-amide], the inhibition at 1.14 µM was 44%.
